Results as given in patent publication US7108865B2, “Controlled-release dosage forms of azithromycin” (Pfizer Inc, priority 1994, dated 2006).

What was measured:
[1] = 3,995 patients, all dose levels combined, cited from earlier work
[2] = human body; cited from earlier work
[3] = Visual Analogue Scale gastrointestinal side effects after 2 g oral capsule dose, single vs divided (Example 1); assay type: in vivo, human; design: key to Mean Cumulative Score (Visual Analogue Scale), abdominal pain / Mean Cumulative Score (Visual Analogue Scale), nausea / Mean Cumulative Score (Visual Analogue Scale), regurgitation / Mean Cumulative Score (Visual Analogue Scale), abdominal cramping: per-subject sum of 0–10 VAS scores over 240 h, averaged over group; conditions: for Incidence of Visual-Analogue-Scale score >1, abdominal cramping / Incidence of Visual-Analogue-Scale score >1, abdominal pain / Incidence of Visual-Analogue-Scale score >1, nausea / Incidence of Visual-Analogue-Scale score >1, regurgitation / Incidence of Visual-Analogue-Scale score >4, abdominal cramping / Incidence of Visual-Analogue-Scale score >4, abdominal pain / Incidence of Visual-Analogue-Scale score >4, nausea / Incidence of Visual-Analogue-Scale score >4, regurgitation: any time during 240 hr post-dose, #patients reporting score/total # patients; for Mean Cumulative Score (Visual Analogue Scale), abdominal cramping / Mean Cumulative Score (Visual Analogue Scale), abdominal pain / Mean Cumulative Score (Visual Analogue Scale), nausea / Mean Cumulative Score (Visual Analogue Scale), regurgitation: entire 240 hour post-dose period
Experimental: In a double-blind, randomized, placebo-controlled parallel group study, healthy male subjects were divided into three groups. Group A received a single 2 g azithromycin dose as eight 250 mg azithromycin capsules (“bolus dosing” group). Group B received the same total dose, administered as eight 250 mg capsules at the rate of one 250 mg capsule each 30 minutes for 3.5 hr (“divided dosing” group). Group C received matching placebo capsules. All subjects received eight capsules of drug or placebo at time 0, and a capsule of drug or placebo every half-hour for 3.5 hr. All subjects were dosed after an overnight fast. […] Tmax is the time at which Cmax is achieved.
(§1) Prior to dosing and each blood sampling time, each subject filled out a questionnaire, which consisted of a series of “Visual Analogue Scales” in which the subject was required to rate, on a scale of 0–10, the severity of certain potential side effects. The subjects were instructed that “0” indicated an absent effect and “10” indicated the worst possible effect. The subjects were instructed to interpolate between 0 and 10 for moderate side effects.
(§2) Analysis of side effect visual-analogue-scale data was carried out in two formats. In the first format (Table II), the analysis concentrated on the general incidence of side effects of a particular type. For each side effect type (e.g., abdominal pain), Table II reports the number of subjects who reported a score >1 at any time during the 240 hr post-dosing, and the number of subjects who reported a score >4 at any time during the 240 hr post-dosing. This analysis assumes that all scores >1 represent a real side effect occurrence, however mild or severe. A score >4 is presumed to reflect a moderate-to-severe side effect occurrence.
In the second format (Table III), the analysis reflects the general severity and duration of side effects. For a particular side effect (e.g., Abdominal Pain) in a particular subject, all visual-analogue-scale scores (over the 240 hr post-dose period) were summed to give a “cumulative score” over the entire time period of evaluation. “Cumulative scores” for all members of a treatment group were summed, and divided by the number of subjects in the group, to give a Mean Cumulative Score. […] Table III presents Mean Cumulative Scores for abdominal pain, nausea, regurgitation, and abdominal cramping.

[4] = Visual Analogue Scale gastrointestinal side effects after 2 hr intravenous infusion (Example 3); assay type: in vivo, human; design: key to Mean Cumulative Score (Visual Analogue Scale), abdominal pain / Mean Cumulative Score (Visual Analogue Scale), nausea / Mean Cumulative Score (Visual Analogue Scale), regurgitation / Mean Cumulative Score (Visual Analogue Scale), abdominal cramping: sum over 240 h of 0–10 VAS severity scores, averaged per subject; conditions: not corrected for placebo effects; for Incidence of Visual-Analogue-Scale score >1, abdominal cramping / Incidence of Visual-Analogue-Scale score >1, abdominal pain / Incidence of Visual-Analogue-Scale score >1, nausea / Incidence of Visual-Analogue-Scale score >1, regurgitation / Incidence of Visual-Analogue-Scale score >4, abdominal cramping / Incidence of Visual-Analogue-Scale score >4, abdominal pain / Incidence of Visual-Analogue-Scale score >4, nausea / Incidence of Visual-Analogue-Scale score >4, regurgitation: any time during 240 hour post-dose; for Mean Cumulative Score (Visual Analogue Scale), abdominal cramping / Mean Cumulative Score (Visual Analogue Scale), abdominal pain / Mean Cumulative Score (Visual Analogue Scale), nausea / Mean Cumulative Score (Visual Analogue Scale), regurgitation: entire 240 hour post-dose period
Experimental: Healthy male subjects were divided into four groups. Group A received a 2 hr intravenous infusion of a placebo solution (0 g azithromycin). Group B received a 2 hr intravenous infusion of a 1 g dose of azithromycin. Group C received a 2 hr intravenous infusion of a 2 g dose of azithromycin. Group D received a 2 hr intravenous infusion of a 4 g dose of azithromycin. […] All subjects were dosed after an overnight fast.
as §1
as §2, with “(Table VIII),” for “(Table II),”, “Table VIII” for “Table II”, “[…]” for “scores >1”
In the second format (Table IX), the analysis reflects the general severity and duration of side effects. For a particular side effect (e.g., Abdominal Pain) in a particular subject, all visual-analogue-scale scores (over the 240 hr post-dose period) were summed to give a “cumulative score” over the entire time period of evaluation. “Cumulative scores” for all members of a treatment group were summed, and divided by the number of subjects in the group, to a give a Mean Cumulative Score. […] Table IX presents Mean Cumulative Scores for abdominal pain, nausea, regurgitation, and abdominal cramping.

[5] = 250 mg per half-hr for 3.5 hr (2 g total), oral
[6] = 250 mg/half-hr for 3.5 hr (2 g total), oral

CC[C@H]1OC(=O)[C@H](C)[C@@H](O[C@H]2C[C@@](C)(OC)[C@@H](O)[C@H](C)O2)[C@H](C)[C@@H](O[C@@H]2O[C@H](C)C[C@H](N(C)C)[C@H]2O)[C@](C)(O)C[C@@H](C)CN(C)[C@H](C)[C@@H](O)[C@]1(C)O [azithromycin, 9a-aza-9a-methyl-9-deoxo-9a-homoerythromycin A]
patients reporting gastrointestinal side effects ([1]; oral): 9.6%
incidence of abdominal pain [1]: 2.5%
incidence of diarrhea [1]: 3.6%
incidence of nausea [1]: 2.6%
elimination half-life [2]: about 69 hours
Incidence of Visual-Analogue-Scale score >1, abdominal cramping [3, 5]: 4/14
Incidence of Visual-Analogue-Scale score >1, abdominal pain [3, 5]: 6/14
Incidence of Visual-Analogue-Scale score >1, nausea [3, 5]: 3/14
Incidence of Visual-Analogue-Scale score >1, regurgitation [3, 5]: 0/14
Incidence of Visual-Analogue-Scale score >4, abdominal cramping [3, 5]: 0/14
Incidence of Visual-Analogue-Scale score >4, abdominal pain [3, 5]: 1/14
Incidence of Visual-Analogue-Scale score >4, nausea [3, 5]: 0/14
Incidence of Visual-Analogue-Scale score >4, regurgitation [3, 5]: 0/14
Mean Cumulative Score (Visual Analogue Scale), abdominal cramping [3, 6]: 4.46
Mean Cumulative Score (Visual Analogue Scale), abdominal pain [3, 6]: 6.31
Mean Cumulative Score (Visual Analogue Scale), nausea [3, 6]: 2.77
Mean Cumulative Score (Visual Analogue Scale), regurgitation [3, 6]: 1.38
Incidence of Visual-Analogue-Scale score >1, abdominal cramping ([3]; 2 g single oral dose): 6/15
Incidence of Visual-Analogue-Scale score >1, abdominal pain ([3]; 2 g single oral dose): 6/15
Incidence of Visual-Analogue-Scale score >1, nausea ([3]; 2 g single oral dose): 2/15
Incidence of Visual-Analogue-Scale score >1, regurgitation ([3]; 2 g single oral dose): 0/15
Incidence of Visual-Analogue-Scale score >4, abdominal cramping ([3]; 2 g single oral dose): 1/15
Incidence of Visual-Analogue-Scale score >4, abdominal pain ([3]; 2 g single oral dose): 2/15
Incidence of Visual-Analogue-Scale score >4, nausea ([3]; 2 g single oral dose): 1/15
Incidence of Visual-Analogue-Scale score >4, regurgitation ([3]; 2 g single oral dose): 0/15
Mean Cumulative Score (Visual Analogue Scale), abdominal cramping ([3]; 2 g single oral dose): 4.67
Mean Cumulative Score (Visual Analogue Scale), abdominal pain ([3]; 2 g single oral dose): 6.4
Mean Cumulative Score (Visual Analogue Scale), nausea ([3]; 2 g single oral dose): 1.93
Mean Cumulative Score (Visual Analogue Scale), regurgitation ([3]; 2 g single oral dose): 0.53
Incidence of Visual-Analogue-Scale score >1, abdominal cramping ([4]; 1 g IV over 2 hr): 0/5
Incidence of Visual-Analogue-Scale score >1, abdominal pain ([4]; 1 g IV over 2 hr): 1/5
Incidence of Visual-Analogue-Scale score >1, nausea ([4]; 1 g IV over 2 hr): 0/5
Incidence of Visual-Analogue-Scale score >1, regurgitation ([4]; 1 g IV over 2 hr): 0/5
Incidence of Visual-Analogue-Scale score >4, abdominal cramping ([4]; 1 g IV over 2 hr): 0/5
Incidence of Visual-Analogue-Scale score >4, abdominal pain ([4]; 1 g IV over 2 hr): 0/5
Incidence of Visual-Analogue-Scale score >4, nausea ([4]; 1 g IV over 2 hr): 0/5
Incidence of Visual-Analogue-Scale score >4, regurgitation ([4]; 1 g IV over 2 hr): 0/5
Mean Cumulative Score (Visual Analogue Scale), abdominal cramping ([4]; 1.0 g IV, n 6): 0.5
Mean Cumulative Score (Visual Analogue Scale), abdominal pain ([4]; 1.0 g IV, n 6): 1.5
Mean Cumulative Score (Visual Analogue Scale), nausea ([4]; 1.0 g IV, n 6): 0
Mean Cumulative Score (Visual Analogue Scale), regurgitation ([4]; 1.0 g IV, n 6): 0
Incidence of Visual-Analogue-Scale score >1, abdominal cramping ([4]; 2 g IV over 2 hr): 1/6
Incidence of Visual-Analogue-Scale score >1, abdominal pain ([4]; 2 g IV over 2 hr): 2/6
Incidence of Visual-Analogue-Scale score >1, nausea ([4]; 2 g IV over 2 hr): 4/6
Incidence of Visual-Analogue-Scale score >1, regurgitation ([4]; 2 g IV over 2 hr): 1/6
Incidence of Visual-Analogue-Scale score >4, abdominal cramping ([4]; 2 g IV over 2 hr): 1/6
Incidence of Visual-Analogue-Scale score >4, abdominal pain ([4]; 2 g IV over 2 hr): 1/6
Incidence of Visual-Analogue-Scale score >4, nausea ([4]; 2 g IV over 2 hr): 2/6
Incidence of Visual-Analogue-Scale score >4, regurgitation ([4]; 2 g IV over 2 hr): 0/6
Mean Cumulative Score (Visual Analogue Scale), abdominal cramping ([4]; 2.0 g IV, n 6): 3.8
Mean Cumulative Score (Visual Analogue Scale), abdominal pain ([4]; 2.0 g IV, n 6): 5.7
Mean Cumulative Score (Visual Analogue Scale), nausea ([4]; 2.0 g IV, n 6): 13.2
Mean Cumulative Score (Visual Analogue Scale), regurgitation ([4]; 2.0 g IV, n 6): 0.5
Incidence of Visual-Analogue-Scale score >1, abdominal cramping ([4]; 4 g IV over 2 hr): 4/5
Incidence of Visual-Analogue-Scale score >1, abdominal pain ([4]; 4 g IV over 2 hr): 4/5
Incidence of Visual-Analogue-Scale score >1, nausea ([4]; 4 g IV over 2 hr): 3/5
Incidence of Visual-Analogue-Scale score >1, regurgitation ([4]; 4 g IV over 2 hr): 1/5
Incidence of Visual-Analogue-Scale score >4, abdominal cramping ([4]; 4 g IV over 2 hr): 2/5
Incidence of Visual-Analogue-Scale score >4, abdominal pain ([4]; 4 g IV over 2 hr): 0/5
Incidence of Visual-Analogue-Scale score >4, nausea ([4]; 4 g IV over 2 hr): 2/5
Incidence of Visual-Analogue-Scale score >4, regurgitation ([4]; 4 g IV over 2 hr): 1/5
Mean Cumulative Score (Visual Analogue Scale), abdominal cramping ([4]; 4.0 g IV, n 5): 11.8
Mean Cumulative Score (Visual Analogue Scale), abdominal pain ([4]; 4.0 g IV, n 5): 12.8
Mean Cumulative Score (Visual Analogue Scale), nausea ([4]; 4.0 g IV, n 5): 10.6
Mean Cumulative Score (Visual Analogue Scale), regurgitation ([4]; 4.0 g IV, n 5): 3.8
